Assay results: ChEMBL document CHEMBL5143730, “Structure-Based Design, Optimization, and Development of [18F]LU13: A Novel Radioligand for Cannabinoid Receptor Type 2 Imaging in the Brain with PET” (J Med Chem, 2022)

Target: Cannabinoid receptor 1 (Homo sapiens, UniProt P21554)
Test: Displacement of [3H]-SR141716A from recombinant human CB1 receptor expressed in CHO cells membrane incubated for 90 mins
Type: cell membranes
Details: not given

Chain of Cannabinoid receptor 1 (P21554 whole entry): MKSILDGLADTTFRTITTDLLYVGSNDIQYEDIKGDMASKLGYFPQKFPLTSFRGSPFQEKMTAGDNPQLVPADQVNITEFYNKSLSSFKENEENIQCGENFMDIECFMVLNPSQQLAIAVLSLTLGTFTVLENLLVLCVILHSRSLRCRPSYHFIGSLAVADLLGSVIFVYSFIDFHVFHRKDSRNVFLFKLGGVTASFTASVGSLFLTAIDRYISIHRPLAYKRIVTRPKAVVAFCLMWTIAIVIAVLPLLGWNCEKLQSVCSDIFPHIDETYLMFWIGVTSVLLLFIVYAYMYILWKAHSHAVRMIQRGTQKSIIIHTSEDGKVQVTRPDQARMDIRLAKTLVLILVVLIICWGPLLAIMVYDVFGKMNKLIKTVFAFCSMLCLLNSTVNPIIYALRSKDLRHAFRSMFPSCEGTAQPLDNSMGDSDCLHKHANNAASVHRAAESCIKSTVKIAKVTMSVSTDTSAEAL

Row | SMILES | Ki
1 | C[C@H]1CC[C@@H](NC(=O)c2cc3cc(-c4ccco4)cnc3n(CCCF)c2=O)CC1 | 28 nM
2 | O=C(NC12CC3CC(CC(C3)C1)C2)c1cc2cccnc2n(Cc2ccc(F)cc2)c1=O | 1.5 nM
3 | C[C@H]1CC[C@H](NC(=O)c2cc3cc(-c4ccco4)cnc3n(CCCF)c2=O)CC1 | 6800 nM
4 | O=C(NC12CC3CC(CC(C3)C1)C2)c1cc2cccnc2n(CCCCF)c1=O | 0.6 nM
5 | C[C@H]1CC[C@@H](NC(=O)c2cc3cc(-c4ccco4)cnc3n(Cc3ccc(F)cc3)c2=O)CC1 | 5 nM
6 | C[C@H]1CC[C@H](NC(=O)c2cc3cc(-c4ccco4)cnc3n(Cc3cccc(F)c3)c2=O)CC1 | 5000 nM
7 | C[C@H]1CC[C@H](NC(=O)c2cc3cc(-c4ccco4)cnc3n(Cc3ccc(F)cc3)c2=O)CC1 | 86 nM
8 | CC1CCC(NC(=O)c2cc3cc(Br)cnc3n(Cc3ccc(F)cc3)c2=O)CC1 (mixture of isomers) | 1.7 nM
9 | O=C(Nc1ccc(F)nc1)c1cc2cccnc2n(CCCCF)c1=O | > 1000 nM

Target: T1, Cannabinoid receptor 2 (Homo sapiens, UniProt P34972)
Test: Displacement of [3H]-WIN55212-2 from human CB2 receptor transfected in CHO cells membrane incubated for 90 mins
Type: cell membranes
Details: not given

T1 sequence (P34972 whole entry): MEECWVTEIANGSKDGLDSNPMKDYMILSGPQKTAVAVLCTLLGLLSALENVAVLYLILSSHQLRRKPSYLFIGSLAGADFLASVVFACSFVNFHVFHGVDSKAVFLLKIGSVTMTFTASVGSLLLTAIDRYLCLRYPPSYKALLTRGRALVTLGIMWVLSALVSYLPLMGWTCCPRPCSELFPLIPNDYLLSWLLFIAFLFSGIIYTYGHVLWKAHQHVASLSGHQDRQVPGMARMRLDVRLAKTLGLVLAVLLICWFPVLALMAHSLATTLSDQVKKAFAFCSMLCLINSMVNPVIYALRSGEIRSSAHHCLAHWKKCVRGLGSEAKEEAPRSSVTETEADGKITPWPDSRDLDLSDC

Row | SMILES | Ki
10 | Cc1s/c(=N\C(=O)C2C(C)(C)C2(C)C)n(CCCC[18F])c1C | 0.4 nM
11 | C[C@H]1CC[C@@H](NC(=O)c2cc3cc(-c4ccco4)cnc3n(CCCF)c2=O)CC1 | > 10000 nM
12 | O=C(NC12CC3CC(CC(C3)C1)C2)c1cc2cccnc2n(Cc2ccc(F)cc2)c1=O | > 1000 nM
13 | O=C(NC12CC3CC(CC(C3)C1)C2)c1cc2cccnc2n(CCCCF)c1=O | > 1000 nM
14 | C[C@H]1CC[C@@H](NC(=O)c2cc3cc(-c4ccco4)cnc3n(Cc3ccc(F)cc3)c2=O)CC1 | 915 nM
15 | CC1CCC(NC(=O)c2cc3cc(Br)cnc3n(Cc3ccc(F)cc3)c2=O)CC1 (mixture of isomers) | > 155 nM
16 | O=C(Nc1ccc(F)nc1)c1cc2cccnc2n(CCCCF)c1=O | > 10000 nM

Species: Homo sapiens
Test: Selectivity ratio of Ki for displacement of [3H]-SR141716A from human CB1 receptor to Ki for displacement of [3H]-WIN55212-2 from human CB2 receptor
Details: not given

Row | SMILES | Ratio Ki
17 | O=C(NC12CC3CC(CC(C3)C1)C2)c1cc2cccnc2n(CCCCF)c1=O | > 1000
18 | C[C@H]1CC[C@@H](NC(=O)c2cc3cc(-c4ccco4)cnc3n(Cc3ccc(F)cc3)c2=O)CC1 | > 183
19 | CC1CCC(NC(=O)c2cc3cc(Br)cnc3n(Cc3ccc(F)cc3)c2=O)CC1 (mixture of isomers) | 91

Same assay, conditions: tested as the 18F-labelled form

Row | SMILES | Ratio Ki
20 | COc1cccc2c(=O)c(C(=O)NC34CC5CC(CC(C5)C3)C4)cn(CCOCCCF)c12 | > 10000
21 | Cc1s/c(=N\C(=O)C2C(C)(C)C2(C)C)n(CCCCF)c1C | 1000

Target: T2, Cannabinoid receptor 2 (Rattus norvegicus, UniProt Q9QZN9)
T2 sequence (Q9QZN9 whole entry): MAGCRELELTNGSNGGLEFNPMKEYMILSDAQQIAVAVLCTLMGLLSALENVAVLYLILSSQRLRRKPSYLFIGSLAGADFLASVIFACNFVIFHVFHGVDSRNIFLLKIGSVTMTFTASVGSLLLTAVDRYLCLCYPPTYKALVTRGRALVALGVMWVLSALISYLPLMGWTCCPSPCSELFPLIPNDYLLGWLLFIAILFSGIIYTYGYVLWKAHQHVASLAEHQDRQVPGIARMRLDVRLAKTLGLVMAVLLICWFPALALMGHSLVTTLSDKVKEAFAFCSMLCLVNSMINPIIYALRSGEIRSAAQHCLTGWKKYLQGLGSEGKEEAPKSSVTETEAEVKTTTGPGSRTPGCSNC
Test: Displacement of [18F]-LU13 from rat spleen CB2 receptor incubated for 90 mins by competitive radioligand binding assay
Type: tissue-based
Details: not given

Row | SMILES | IC50
22 | O=C(NC12CC3CC(CC(C3)C1)C2)c1cc2cccnc2n(CCCCF)c1=O | 0.22 nM

Target: T1, Cannabinoid receptor 2
Test: Displacement of [18F]-LU13 from human CB2 receptor transfected in CHO cells membrane homogenate incubated for 90 mins by competitive radioligand binding assay
Type: cell membranes
Details: not given

Row | SMILES | IC50
23 | O=C(NC12CC3CC(CC(C3)C1)C2)c1cc2cccnc2n(CCCCF)c1=O | 1.17 nM

System: not listed separately
Test: Metabolic stability in CD-1 mouse plasma assessed as parent compound remaining measured after 30 mins by radio-HPLC analysis
Type: ADME, cell-free
Details: read-out: Stability

Row | SMILES | remaining at 0.5 h
24 | [2H]C([2H])([18F])C([2H])([2H])C([2H])([2H])C([2H])([2H])n1c(=O)c(C(=O)NC23CC4CC(CC(C4)C2)C3)cc2cccnc21 | 23%

System: not listed separately
Test: Metabolic stability in CD-1 mouse brain assessed as parent compound remaining measured after 30 mins by radio-HPLC analysis
Type: ADME, tissue-based
Details: read-out: Stability

Row | SMILES | remaining at 0.5 h
25 | [2H]C([2H])([18F])C([2H])([2H])C([2H])([2H])C([2H])([2H])n1c(=O)c(C(=O)NC23CC4CC(CC(C4)C2)C3)cc2cccnc21 | 85%

System: not listed separately
Test: Metabolic stability in CD-1 mouse spleen assessed as parent compound remaining measured after 30 mins by radio-HPLC analysis
Type: ADME, tissue-based
Details: read-out: Stability

Row | SMILES | remaining at 0.5 h
26 | [2H]C([2H])([18F])C([2H])([2H])C([2H])([2H])C([2H])([2H])n1c(=O)c(C(=O)NC23CC4CC(CC(C4)C2)C3)cc2cccnc21 | 95%

System: not listed separately
Test: Drug uptake in iv dosed Wistar rat brain striatum overexpressing human CB2 receptor (D80N) assessed as time to peak radioactivity measured after 26 mins of post injection by PET imaging analysis
Type: ADME, organism-based
Details: in vivo

Row | SMILES | Drug uptake
27 | [2H]C([2H])([18F])C([2H])([2H])C([2H])([2H])C([2H])([2H])n1c(=O)c(C(=O)NC23CC4CC(CC(C4)C2)C3)cc2cccnc21 | 26 min

System: not listed separately
Test: Drug uptake in iv dosed Wistar rat brain striatum overexpressing human CB2 receptor (D80N) assessed as TAC peak standardized uptake of compound by PET imaging analysis
Type: ADME, organism-based
Details: in vivo

Row | SMILES | Drug uptake
28 | [2H]C([2H])([18F])C([2H])([2H])C([2H])([2H])C([2H])([2H])n1c(=O)c(C(=O)NC23CC4CC(CC(C4)C2)C3)cc2cccnc21 | 3.6 SUV.min

System: not listed separately
Test: Drug uptake in iv dosed Wistar rat brain contralateral region overexpressing human CB2 receptor (D80N) assessed as time to peak radioactivity measured after 26 mins of post injection by PET imaging analysis
Type: ADME, organism-based
Details: in vivo

Row | SMILES | Drug uptake
29 | [2H]C([2H])([18F])C([2H])([2H])C([2H])([2H])C([2H])([2H])n1c(=O)c(C(=O)NC23CC4CC(CC(C4)C2)C3)cc2cccnc21 | 6.1 min

System: not listed separately
Test: Drug uptake in iv dosed Wistar rat brain contralateral region overexpressing human CB2 receptor (D80N) assessed as TAC peak standardized uptake of compound by PET imaging analysis
Type: ADME, organism-based
Details: in vivo

Row | SMILES | Drug uptake
30 | [2H]C([2H])([18F])C([2H])([2H])C([2H])([2H])C([2H])([2H])n1c(=O)c(C(=O)NC23CC4CC(CC(C4)C2)C3)cc2cccnc21 | 1.7 SUV.min

System: not listed separately
Test: MRT in iv dosed Wistar rat brain contralateral region overexpressing human CB2 receptor (D80N) by PET imaging analysis
Type: ADME, organism-based
Details: in vivo

Row | SMILES | MRT
31 | [2H]C([2H])([18F])C([2H])([2H])C([2H])([2H])C([2H])([2H])n1c(=O)c(C(=O)NC23CC4CC(CC(C4)C2)C3)cc2cccnc21 | 23 min

System: not listed separately
Test: Drug uptake in iv dosed Wistar rat brain cerebellum overexpressing human CB2 receptor (D80N) assessed as time to peak radioactivity measured after 26 mins of post infection by PET imaging analysis
Type: ADME, organism-based
Details: in vivo

Row | SMILES | Drug uptake
32 | [2H]C([2H])([18F])C([2H])([2H])C([2H])([2H])C([2H])([2H])n1c(=O)c(C(=O)NC23CC4CC(CC(C4)C2)C3)cc2cccnc21 | 5.4 min

System: not listed separately
Test: Drug uptake in iv dosed Wistar rat brain cerebellum overexpressing human CB2 receptor (D80N) assessed as TAC peak standardized uptake of compound by PET imaging analysis
Type: ADME, organism-based
Details: in vivo

Row | SMILES | Drug uptake
33 | [2H]C([2H])([18F])C([2H])([2H])C([2H])([2H])C([2H])([2H])n1c(=O)c(C(=O)NC23CC4CC(CC(C4)C2)C3)cc2cccnc21 | 1.8 SUV.min

System: not listed separately
Test: MRT in iv dosed Wistar rat brain cerebellum overexpressing human CB2 receptor (D80N) by PET imaging analysis
Type: ADME, organism-based
Details: in vivo

Row | SMILES | MRT
34 | [2H]C([2H])([18F])C([2H])([2H])C([2H])([2H])C([2H])([2H])n1c(=O)c(C(=O)NC23CC4CC(CC(C4)C2)C3)cc2cccnc21 | 23 min

Target: T1, Cannabinoid receptor 2
Test: Displacement of [3H]-WIN55212-2 from human CB2 receptor transfected in CHO-K1 cell membrane incubated for 90 mins by Liquid scintillation counter analysis
Type: cell membranes
Details: not given

Row | SMILES | Ki
35 | COc1cccc2c(=O)c(C(=O)NC34CC5CC(CC(C5)C3)C4)cn(CCOCCC[18F])c12 | 0.9 nM

Target: T1, Cannabinoid receptor 2
Test: Inhibition of human CB2 receptor assessed as inhibition constant
Type: functional
Details: not given

Row | Ki | SMILES
36 | 0.6 nM | [2H]C([2H])([18F])C([2H])([2H])C([2H])([2H])OC(=O)C(CC)(CC)NC(=O)c1ccc(N2CC(OC)C2)c(OC[C@H]2C[C@@H]2CO)n1

Species: Homo sapiens
Test: Selectivity ratio of Ki for human CB1 receptor to Ki for human CB2 receptor
Details: tested as the 11C-labelled form

Row | SMILES | Ratio Ki
37 | CCCCOc1c(OC)ccc2cc(C(=O)NC3CCCCC3)c(=O)[nH]c12 | 100

Same assay, conditions: tested as the 18F, 2H-labelled form

Row | Ratio Ki | SMILES
38 | > 10000 | CCC(CC)(NC(=O)c1ccc(N2CC(OC)C2)c(OC[C@H]2C[C@@H]2CO)n1)C(=O)OCCCF
